Results reported in PubChem BioAssay AID2060888 (Molecular Pharmacology Branch, DTP, NCI, 2025).

System: 695427-040-R-J1-PDC complex spheroid viability
Test: Anticancer human tumor 695427-040-R-J1-PDC patient-derived colon adenocarcinoma cell line growth inhibition [RAS]
Details: for IC50: curve of first compound; for viability, T/C: stronger effect = lower value
Source text: RAS pathway inhibitors in Combinations in Complex Spheroids
A high-throughput screen of multi-cell type tumor spheroids was designed to identify active combinations of RAS pathway inhibitors and targeted small molecules. Complex spheroids include a stromal component modeled by human endothelial cells (HUVEC) and fibroblasts modeled by human mesenchymal stem cells (MSCs). The concentration ranges selected for each drug and investigational agent were based upon clinically achievable concentrations if the clinical Cmax of the agent was known.
Compounds. The drugs and investigational agents: abemaciclib (NSC768073), cobimetinib (NSC768068), divarasib (GDC6063, NSC841802), docetaxel (NSC628503), GDC-1971 (RLY-1971, NSC841576), gemcitabine (NSC613327), inavolisib (NSC800729), ipatasertib (NSC767898), KB-0742 (NSC834161), MRTX-1133 (NSC836407), osimertinib (NSC779217), RMC-4630 (NSC839698), RMC-6236 (NSC851965), RMC-6291 (NSC852671), Ro-3306 (NSC812927), sapanisertib (NSC764658), SN-38 (NSC673596), staurosporine (NSC755774), SY5609 (NSC837396), and tovorafenib (DAY101, NSC766906), were obtained from the National Cancer Institute (NCI) Developmental Therapeutics Program Chemical Repository. The FDA-approved anticancer drug set is available from the NCI Developmental Therapeutics Program. […] The stock solutions were prepared in dimethyl sulfoxide (DMSO, Sigma-Aldrich, St. Louis, MO, cat. D2650) at 800-fold the tested concentration and stored at -70 degrees C prior to their use. All drugs and investigational agents were tested over a range starting from a high concentration at or near the clinical Cmax and decreasing in half-log increments. If the clinical Cmax for an agent had not been determined, the highest concentration tested was 10 microM.
Cell Culture. All cells were maintained in an incubator at 37 degrees C and 5% CO2 with 95% humidity. The PDC lines were cultured according to standard operating procedures established by the NCI PDMR. All PDCs were thawed and cultured in Matrigel-coated flasks prepared with a working solution of 1X Ham's F-12 nutrient mix, without supplementation (Invitrogen, Waltham, MA, cat. 11765054), 100 U/mL penicillin-streptomycin (Invitrogen, cat. 15140122), and 2.5% Matrigel (Corning Inc., Corning, NY, cat. 354248) for the first three passages. The 362531-283-R-J2-PDC and 782815-120-R-J1-PDC lines were cultured in 6C/Colon 1B media, which includes advanced DMEM/F-12 (Thermo Fisher Scientific, cat. 12634028), 10 mM HEPES (Thermo Fisher Scientific, cat. 15630080), 1X GlutaMAX supplement (Thermo Fisher Scientific, cat. 35050061), 0.1 mg/mL primocin (InvivoGen, San Diego, CA, cat. ant-pm-2), 10% defined fetal bovine serum, heat inactivated (HyClone Laboratories Inc., Logan, UT, cat. SH30070.03HI), 50% L-WRN conditioned media (ATCC, cat. CRL-3276), 1.25 mM N-Acetyl-L-cysteine (Sigma-Aldrich, cat. A9165), 10 mM nicotinamide (Sigma-Aldrich, cat. N0636), 1X B-27 supplement (Thermo Fisher Scientific, cat. 17504044), 1X N-2 supplement (Thermo Fisher Scientific, cat. 17502048), 50 ng/mL human EGF (Thermo Fisher Scientific, cat. PHG0311), and 10 microM Y-27632 dihydrochloride (Tocris Bioscience, cat. 1254). The K12877-001-R-J1-PDC line was cultured in 6I media, which includes all 6C/Colon 1B media plus 10 ng/mL human FGF-10 (PeproTech, cat. 100-26), 1 ng/mL human FGF-2 (PeproTech, cat. 100-18B), 1 µM prostaglandin E2 (Tocris Bioscience, cat. 2296), […] hydrocortisone (Sigma-Aldrich, cat. H4001), and […] bovine insulin (Sigma-Aldrich, cat. I6634). The K86415-001-R-J1-PDC line was cultured in 6D media, which includes all 6C/Colon 1B media components minus the L-WRN conditioned media. The 485176-168-R4-J1-PDC was cultured in PANC media, which includes all 6C/Colon 1B media plus 100 ng/mL human FGF-10 (PeproTech, cat. 100-26), 500 nM SB-431542 (Selleckchem, cat. S1067), and 10 nM gastrin (Tocris Bioscience, cat. 3006). […]

[1] = second compound 0.0316 µM, first compound 0.0316 µM
[2] = second compound 0.0316 µM, first compound 0.1 µM
[3] = second compound 0.1 µM, first compound 0.0316 µM
[4] = second compound 0.1 µM, first compound 0.1 µM
[5] = second compound 0.316 µM, first compound 0.0316 µM
[6] = second compound 0.316 µM, first compound 0.1 µM
[7] = second compound 1 µM, first compound 0.0316 µM
[8] = second compound 1 µM, first compound 0.1 µM
[9] = second compound 3.16 µM, first compound 0.0316 µM
[10] = second compound 3.16 µM, first compound 0.1 µM
[11] = second compound 10 µM, first compound 0.0316 µM
[12] = second compound 10 µM, first compound 0.1 µM
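Also: viability read after seven days of drug exposure.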
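For viability, T/C in this document: 100% = DMSO vehicle control viability.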

CC(C)n1nc(-c2ccc3oc(N)nc3c2)c2c(N)ncnc21 + C#Cc1c(F)ccc2cc(O)cc(-c3ncc4c(N5CC6CCC(C5)N6)nc(OCC56CCCN5CC(F)C6)nc4c3F)c12
IC50 (second compound 0.0316 µM): > 100 nM | IC50 (second compound 0.1 µM): > 100 nM | IC50 (second compound 0.316 µM): > 100 nM | IC50 (second compound 1 µM): 22.5 nM | IC50 (second compound 3.16 µM): 2.77 nM | IC50 (second compound 10 µM): < 0.316 nM | viability, T/C (second compound 0.0316 µM, first compound 0.000316 µM): 105% | viability, T/C (second compound 0.0316 µM, first compound 0.001 µM): 95.1% | viability, T/C (second compound 0.0316 µM, first compound 0.00316 µM): 88.5% | viability, T/C (second compound 0.0316 µM, first compound 0.01 µM): 75.7% | viability, T/C [1]: 70.3% | viability, T/C [2]: 62.6% | viability, T/C (second compound 0.1 µM, first compound 0.000316 µM): 93.9% | viability, T/C (second compound 0.1 µM, first compound 0.001 µM): 89.4% | viability, T/C (second compound 0.1 µM, first compound 0.00316 µM): 90% | viability, T/C (second compound 0.1 µM, first compound 0.01 µM): 74.9% | viability, T/C [3]: 74.7% | viability, T/C [4]: 55.9% | viability, T/C (second compound 0.316 µM, first compound 0.000316 µM): 91.9% | viability, T/C (second compound 0.316 µM, first compound 0.001 µM): 80.9% | viability, T/C (second compound 0.316 µM, first compound 0.00316 µM): 78.6% | viability, T/C (second compound 0.316 µM, first compound 0.01 µM): 68.8% | viability, T/C [5]: 61.5% | viability, T/C [6]: 50.5% | viability, T/C (second compound 1 µM, first compound 0.000316 µM): 69.5% | viability, T/C (second compound 1 µM, first compound 0.001 µM): 64.3% | viability, T/C (second compound 1 µM, first compound 0.00316 µM): 63% | viability, T/C (second compound 1 µM, first compound 0.01 µM): 52.4% | viability, T/C [7]: 47.8% | viability, T/C [8]: 42.1% | viability, T/C (second compound 3.16 µM, first compound 0.000316 µM): 51.1% | viability, T/C (second compound 3.16 µM, first compound 0.001 µM): 58.7% | viability, T/C (second compound 3.16 µM, first compound 0.00316 µM): 47.4% | viability, T/C (second compound 3.16 µM, first compound 0.01 µM): 42.1% | viability, T/C [9]: 35.4% | viability, T/C [10]: 26.7% | viability, T/C (second compound 10 µM, first compound 0.000316 µM): 41.5% | viability, T/C (second compound 10 µM, first compound 0.001 µM): 33.5% | viability, T/C (second compound 10 µM, first compound 0.00316 µM): 35% | viability, T/C (second compound 10 µM, first compound 0.01 µM): 27% | viability, T/C [11]: 25% | viability, T/C [12]: 14.5%

C[C@@H](NC(=O)c1ncnc(N)c1Cl)c1ncc(C(=O)Nc2cc(C(F)(F)F)c(Cl)cn2)s1 + C#Cc1c(F)ccc2cc(O)cc(-c3ncc4c(N5CC6CCC(C5)N6)nc(OCC56CCCN5CC(F)C6)nc4c3F)c12
IC50 (second compound 0.0316 µM): > 10000 nM | IC50 (second compound 0.1 µM): > 10000 nM | IC50 (second compound 0.316 µM): > 10000 nM | IC50 (second compound 1 µM): > 10000 nM | IC50 (second compound 3.16 µM): > 10000 nM | IC50 (second compound 10 µM): < 31.6 nM | viability, T/C [1]: 99.8% | viability, T/C [2]: 117% | viability, T/C (second compound 0.0316 µM, first compound 0.316 µM): 108% | viability, T/C (second compound 0.0316 µM, first compound 1 µM): 102% | viability, T/C (second compound 0.0316 µM, first compound 3.16 µM): 101% | viability, T/C (second compound 0.0316 µM, first compound 10 µM): 80.2% | viability, T/C [3]: 109% | viability, T/C [4]: 106% | viability, T/C (second compound 0.1 µM, first compound 0.316 µM): 101% | viability, T/C (second compound 0.1 µM, first compound 1 µM): 100% | viability, T/C (second compound 0.1 µM, first compound 3.16 µM): 94.3% | viability, T/C (second compound 0.1 µM, first compound 10 µM): 70.9% | viability, T/C [5]: 99.8% | viability, T/C [6]: 95.1% | viability, T/C (second compound 0.316 µM, first compound 0.316 µM): 101% | viability, T/C (second compound 0.316 µM, first compound 1 µM): 93% | viability, T/C (second compound 0.316 µM, first compound 3.16 µM): 81.6% | viability, T/C (second compound 0.316 µM, first compound 10 µM): 70.3% | viability, T/C [7]: 87.9% | viability, T/C [8]: 83.2% | viability, T/C (second compound 1 µM, first compound 0.316 µM): 88.5% | viability, T/C (second compound 1 µM, first compound 1 µM): 84.1% | viability, T/C (second compound 1 µM, first compound 3.16 µM): 76.3% | viability, T/C (second compound 1 µM, first compound 10 µM): 57.2% | viability, T/C [9]: 59.2% | viability, T/C [10]: 60.5% | viability, T/C (second compound 3.16 µM, first compound 0.316 µM): 65.9% | viability, T/C (second compound 3.16 µM, first compound 1 µM): 63.9% | viability, T/C (second compound 3.16 µM, first compound 3.16 µM): 56.9% | viability, T/C (second compound 3.16 µM, first compound 10 µM): 42.5% | viability, T/C [11]: 35.1% | viability, T/C [12]: 34.4% | viability, T/C (second compound 10 µM, first compound 0.316 µM): 42.2% | viability, T/C (second compound 10 µM, first compound 1 µM): 37.9% | viability, T/C (second compound 10 µM, first compound 3.16 µM): 41.3% | viability, T/C (second compound 10 µM, first compound 10 µM): 27.8%
